Reference: patent publication US20250381168A1, “VLA4 INHIBITORS AND USES THEREOF” (Washington University, priority 2022, published 2025)
pIC50: −log10 of the molar value. Where two headings read alike, the source gives them in different places.

Key:
[1] = system: hematopoietic stem/progenitor cells (HSPCs); assay: HSPC mobilization into peripheral blood, colony forming unit (CFU) assay; details: mice; for No. CFU (×10^3)/mL ± SD, 0.25 hr: 0.25 hr post dose (TABLE 5)
Protocol: HSPC mobilization. […] For those that dissolve in straight saline, a 0.2 mL dose, diluted with saline from the stock solution to provide the target dose (in mg/kg), was injected s.c. to each test mouse.
When doing combination studies with the VLA4 inhibitor plus a CXCR4 inhibitor and/or a CXCL2 agonist, the other agents were dosed as follows:
The CXCR4 inhibitor AMD3100 (Mozobil®, Genzyme, Cambridge, MA, USA) suspension was prepared in PBS and administered s.c. at a dose of 5 mg/kg.
Recombinant human CXCL2 (Groβt; R & D systems) was reconstituted in sterile Ca^+2/Mg^+2-free phosphate buffered saline (PBS) and injected subcutaneously (s.c.) at a dose of 2.5 mg/kg.
Colony forming unit (CFU) assay. Peripheral blood (PB) was drawn from the facial vein without anaesthesia into K/EDTA anti-coagulated tubes (Sarstedt AG & Co, NOmbrecht, Germany) at various time points post dosing of the test compounds. Red blood cells were removed from aliquots of blood using hypotonic lysis (Ammonium-Chloride-Potassium, ACK buffer, 5-10 min at RT) and samples were mixed with 2 mL mouse methylcellulose complete media, supplemented with a cocktail of recombinant cytokines (HS0007; R & D Systems, Minneapolis, USA). Cultures were plated in duplicate in 35 mm dishes and placed in a humidified chamber with 5% CO2 at 37° C. After 7 d of culture, colonies containing at least 50 cells were counted using an inverted microscope in a blinded fashion.

[2] = biological target: VLA-4 (a4b1) (Homo sapiens (Human), UniProt P05556+P13612); assay: sVCAM flow cytometry cell-based assay (inhibition of soluble VCAM-1 binding to G2 ALL cells);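 also: compounds at 0.1 to 1000 nM preincubated 30 min with G2 ALL cells, then VCAM/Fc added for 30 min, bound VCAM-1 detected by PE secondary antibody, percent binding cells by flow cytometry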
VLA-4 (a4b1), sequence (P13612 34-1032): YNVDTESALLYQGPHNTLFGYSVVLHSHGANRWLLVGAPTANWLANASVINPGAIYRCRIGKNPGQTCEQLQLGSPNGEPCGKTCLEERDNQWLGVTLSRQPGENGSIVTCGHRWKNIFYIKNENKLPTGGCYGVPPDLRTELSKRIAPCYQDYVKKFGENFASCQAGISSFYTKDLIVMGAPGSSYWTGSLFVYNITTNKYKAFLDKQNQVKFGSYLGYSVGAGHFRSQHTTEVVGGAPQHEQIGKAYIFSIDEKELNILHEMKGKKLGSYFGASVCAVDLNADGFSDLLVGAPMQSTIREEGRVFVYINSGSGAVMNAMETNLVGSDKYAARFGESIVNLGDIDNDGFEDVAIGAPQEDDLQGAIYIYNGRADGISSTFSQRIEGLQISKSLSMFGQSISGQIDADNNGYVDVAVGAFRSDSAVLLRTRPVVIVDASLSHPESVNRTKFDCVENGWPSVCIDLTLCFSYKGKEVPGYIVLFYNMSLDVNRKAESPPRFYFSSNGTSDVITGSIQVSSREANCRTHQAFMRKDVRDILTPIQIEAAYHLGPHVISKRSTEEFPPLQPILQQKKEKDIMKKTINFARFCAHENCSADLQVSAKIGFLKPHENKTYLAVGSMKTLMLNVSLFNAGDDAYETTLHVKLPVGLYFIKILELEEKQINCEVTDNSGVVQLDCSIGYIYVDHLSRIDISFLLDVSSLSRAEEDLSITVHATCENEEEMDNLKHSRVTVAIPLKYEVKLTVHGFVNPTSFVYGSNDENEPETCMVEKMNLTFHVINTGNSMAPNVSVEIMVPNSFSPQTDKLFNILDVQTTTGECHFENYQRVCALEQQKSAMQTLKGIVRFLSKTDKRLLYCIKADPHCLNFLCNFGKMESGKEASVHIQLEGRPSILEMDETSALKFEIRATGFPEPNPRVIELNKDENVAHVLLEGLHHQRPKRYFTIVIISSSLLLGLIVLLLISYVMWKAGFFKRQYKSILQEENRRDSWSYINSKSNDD
VLA-4 (a4b1), sequence (P05556 21-798): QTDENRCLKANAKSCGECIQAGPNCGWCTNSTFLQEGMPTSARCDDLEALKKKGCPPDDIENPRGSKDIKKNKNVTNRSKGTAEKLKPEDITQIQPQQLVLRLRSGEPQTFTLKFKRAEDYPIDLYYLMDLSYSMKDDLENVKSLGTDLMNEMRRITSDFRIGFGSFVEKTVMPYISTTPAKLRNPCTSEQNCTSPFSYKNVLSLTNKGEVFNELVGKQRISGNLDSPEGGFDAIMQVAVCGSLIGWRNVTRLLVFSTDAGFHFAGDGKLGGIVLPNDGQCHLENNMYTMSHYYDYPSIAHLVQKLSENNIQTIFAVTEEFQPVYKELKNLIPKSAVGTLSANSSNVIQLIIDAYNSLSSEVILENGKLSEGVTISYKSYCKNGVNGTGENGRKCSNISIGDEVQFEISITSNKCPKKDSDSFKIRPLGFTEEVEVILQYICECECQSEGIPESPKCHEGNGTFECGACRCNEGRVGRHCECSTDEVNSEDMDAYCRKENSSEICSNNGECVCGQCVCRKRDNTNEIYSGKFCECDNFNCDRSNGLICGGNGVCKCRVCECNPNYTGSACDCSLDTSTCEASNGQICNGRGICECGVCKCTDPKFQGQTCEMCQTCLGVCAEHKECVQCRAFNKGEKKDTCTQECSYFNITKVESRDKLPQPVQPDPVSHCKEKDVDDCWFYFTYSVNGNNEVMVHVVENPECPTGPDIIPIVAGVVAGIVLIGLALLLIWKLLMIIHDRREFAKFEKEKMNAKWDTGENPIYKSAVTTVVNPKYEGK
Protocol: VLA-4 (a4b1) inhibitor compounds were tested for their ability to inhibit the binding of soluble VCAM-1 to human G2 acute lymphoblastic leukemia (ALL) cells. Briefly, G2 ALL cells are pre-incubated with increasing concentrations (0.1 to 1000 nM) of compounds for 30 minutes. Soluble VCAM/Fc chimera protein (R & D systems) is then added to the mixture and the cells incubated for an additional 30 minutes. Afterwards, cells are washed and VCAM-1 is detected using a PE-conjugated secondary polyclonal antibody. In each experiment, an aliquot of cells are stained with isotype control antibodies to serve as a negative control. The percentage of VCAM-1 binding cells was then determined by flow cytometry.

[3] = inhibition of sVCAM-1 binding to human G2 ALL cells (TABLE 3), read-out: SVCAM-1, IC50
[4] = single s.c. injection, peripheral blood
[5] = single s.c. injection, peripheral blood, 2 hr post dose (TABLE 5)
[6] = single s.c. injection, peripheral blood, 4 hr post dose (TABLE 5)
[7] = as listed in TABLE 5, read-out: sVCAM IC50

## c1cc(CN2CCCNCCNCCCNCC2)ccc1CN1CCCNCCNCCCNCC1 [AMD3100, plerixafor]
[1]; single dose alone or in combination with AMD3100 (5 mg/kg s.c.), peripheral blood, 2 hr (TABLE 14)
  No. CFU (×10^3)/mL ± SD, 2 hr: 3.42 ± 1.42 (×10^3)/mL
[1]; single dose alone or in combination with AMD3100 (5 mg/kg s.c.), peripheral blood, 3 hr (TABLE 14)
  No. CFU (×10^3)/mL ± SD, 3 hr: 5.08 ± 2.32 (×10^3)/mL
[1]; single dose alone or in combination with AMD3100 (5 mg/kg s.c.), peripheral blood, 5 hr (TABLE 14)
  No. CFU (×10^3)/mL ± SD, 5 hr: 2.38 ± 0.73 (×10^3)/mL

## O=C(O)[C@H](Cc1ccc(OC(=O)N2CCCC2)cc1)NC(=O)[C@@H]1CCCN1S(=O)(=O)c1ccccc1 [BOP, (N-benzenesulfonyl)-L-prolyl-L-O-(1-pyrrolidinylcarbonyl)tyrosine]
[1]; single dose
  HSPC mobilization, result in words: rapid but transient mobilization of HSPCs but are returning to baseline by 2 hours
[2]; as listed in TABLE 13, for the VLA-4 inhibitor alone, read-out: sVCAM IC50
  pIC50: 7.33
[2]; [3]
  pIC50: 7.33

## CN(C)c1ccc2c(c1)c(=O)n(-c1ccc(C[C@H](NC(=O)c3c(Cl)cccc3Cl)C(=O)O)cc1)c(=O)n2C [Carotegrast]
[1]; single dose, peripheral blood, 1 hr post dose (TABLE 20)
  No. CFU (×10^3)/mL ± SD, 1 hr: 0.58 ± 0.19 (×10^3)/mL
[1]; single dose, peripheral blood, 4 hr post dose (TABLE 20)
  No. CFU (×10^3)/mL ± SD, 4 hr: 0.18 ± 0.08 (×10^3)/mL
[1]; single dose, peripheral blood, 8 hr post dose (TABLE 20)
  No. CFU (×10^3)/mL ± SD, 8 hr: 0.19 ± 0.09 (×10^3)/mL
[2]; as listed in TABLE 20, read-out: sVCAM IC50
  pIC50: 6.93
[2]; [3]
  pIC50: 6.93

## COCCOCCOCCOCCOCCOCCOCCOCCOCCOCCOCCOCCOCCOCCOCCOCCOCCOCCOCCOCCOCCOCCOCCOCCSCc1cc(OC)c(-c2ccc(C[C@H](NC(=O)[C@@H]3CCCN3S(=O)(=O)c3cc(Cl)cc(Cl)c3)C(=O)O)cc2)c(OC)c1 [Example 7, (2S)-2-[[(2S)-1-(3,5-dichlorophenyl)sulfonylpyrrolidine-2-carbonyl]amino]-3-[4-[2,6-dimethoxy-4-[2-[2-[2-[2-[2-[2-[2-[2-[2-[2-[2-[2-[2-[2-[2-[2-[2-[2-[2-[2-[2-[2-[2-(2-thiomethylethoxy)ethoxy]ethoxy]ethoxy]ethoxy]ethoxy]ethoxy]ethoxy]ethoxy]ethoxy]ethoxy]ethoxy]ethoxy]ethoxy]ethoxy]ethoxy]ethoxy]ethoxy]ethoxy]ethoxy]ethoxy]ethoxy]ethoxy]ethoxymethyl]phenyl]phenyl]propanoic acid]
[1]; single dose, peripheral blood, 2 hr post dose (TABLE 11)
  No. CFU (x10^3)/mL ± SD, 2 hr: 2.53 ± 1.11 (x10^3)/mL
[1]; single dose, peripheral blood, 4 hr post dose (TABLE 11)
  No. CFU (x10^3)/mL ± SD, 4 hr: 3.91 ± 1.44 (x10^3)/mL
[1]; single dose, peripheral blood, 6 hr post dose (TABLE 11)
  No. CFU (x10^3)/mL ± SD, 6 hr: 2.96 ± 1.15 (x10^3)/mL
[1]; single dose, peripheral blood, 24 hr post dose (TABLE 11)
  No. CFU (x10^3)/mL ± SD, 24 hr: 0.15 ± 0.05 (x10^3)/mL
[2]; as listed in TABLE 11, read-out: sVCAM IC50
  pIC50: 8.87
[2]; [3]
  pIC50: 8.87

## COc1cc(CO)cc(OC)c1-c1ccc(C[C@H](NC(=O)c2c(Cl)cc(C(=O)O)cc2Cl)C(=O)O)cc1 [Example C2]
[1]; [4]
  No. CFU (×10^3)/mL ± SD, 0.25 hr: 4.08 ± 1.66 (×10^3)/mL
[1]; [5]
  No. CFU (×10^3)/mL ± SD, 2 hr: 2.87 ± 1.47 (×10^3)/mL
[1]; [6]
  No. CFU (×10^3)/mL ± SD, 4 hr: 0.53 ± 0.30 (×10^3)/mL
[2]; [7]
  pIC50: 8.42
[2]; [3]
  pIC50: 8.42

## CCOCc1cc(OC)c(-c2ccc(C[C@H](NC(=O)c3c(Cl)cc(C(=O)O)cc3Cl)C(=O)O)cc2)c(OC)c1 [Example C3]
[1]; [4]
  No. CFU (×10^3)/mL ± SD, 0.25 hr: 3.69 ± 0.52 (×10^3)/mL
[1]; [5]
  No. CFU (×10^3)/mL ± SD, 2 hr: 1.58 ± 0.74 (×10^3)/mL
[1]; [6]
  No. CFU (×10^3)/mL ± SD, 4 hr: 0.30 ± 0.11 (×10^3)/mL
[2]; [7]
  pIC50: 8.87
[2]; [3]
  pIC50: 8.87

## COCCOCCOCCOCc1cc(OC)c(-c2ccc(C[C@H](NC(=O)c3c(Cl)cc(C(=O)O)cc3Cl)C(=O)O)cc2)c(OC)c1 [Example C4]
[1]
  time to which HSPC mobilization is extended after a single dose: ≤ 2 h
[1]; alone or in combination with Plerixafor and tGroβ, peripheral blood, 2 hr (TABLE 17)
  No. CFU (×10^3)/mL ± SD, 2 hr: 2.91 ± 0.83 (×10^3)/mL
[1]; alone or in combination with Plerixafor and tGroβ, peripheral blood, 4 hr (TABLE 17)
  No. CFU (×10^3)/mL ± SD, 4 hr: 0.53 ± 0.16 (×10^3)/mL
[1]; alone or in combination with Plerixafor and tGroβ, peripheral blood, 6 hr (TABLE 17)
  No. CFU (×10^3)/mL ± SD, 6 hr: 0.28 ± 0.09 (×10^3)/mL
[1]; [4]
  No. CFU (×10^3)/mL ± SD, 0.25 hr: 4.73 ± 1.31 (×10^3)/mL
[1]; [5]
  No. CFU (×10^3)/mL ± SD, 2 hr: 1.47 ± 0.51 (×10^3)/mL
[1]; [6]
  No. CFU (×10^3)/mL ± SD, 4 hr: 0.49 ± 0.12 (×10^3)/mL
[2]; [7]
  pIC50: 8.77
[2]; as listed in TABLE 17, read-out: sVCAM IC50
  pIC50: 8.77
[2]; [3]
  pIC50: 8.77
